How the values were obtained:
[1] = target: p38 MAPKα isoform (MAPK14) (Homo sapiens (Human), UniProt Q16539); experiment: p38 MAPKα enzyme inhibition (FRET, Z-LYTE), Method 2; type: biochemical; settings: Method 2, different laboratory (Table 4a2)
[2] = Pharmacokinetics, plasma and total colon tissue distribution in rats; type: in vivo, male Wistar rats; settings: Rat
Description: A study was conducted by Sai Life Sciences (Hinjewadi, Pune, India) to investigate the pharmacokinetics, as well as plasma and total colon tissue distribution of the compound of Example 77 in male Wistar rats following a single intravenous or oral administration.
30 male Wistar rats were divided into two groups: Group I (p.o.: 5 mg/kg; 27 rats) and Group II (i.v.: 0.25 mg/kg; 3 rats). Animals in Group I were administered orally with an aqueous suspension formulation (having 2% HPMC and 0.5% Tween 80) of the compound of Example 77, at a dose of 5 mg/kg. Animals in Group II were administered intravenously with a solution formulation (in 5% v/v DMSO, 7.5% w/v Solutol HS 15 and 87.5% saline (0.9% w/v NaCl)) of the compound of Example 77 at a dose of 0.25 mg/kg. From each rat, blood samples (approximately 120 μL) were collected from retro orbital plexus such that samples were obtained at pre-dose, 0.05, 0.13, 0.25, 0.5, 1, 2, 4, 8, and 24 hr (i.v.) and pre-dose, 0.5, 1, 2, 4, 6, 8, 12 and 24 hr (p.o.). Immediately after collection, plasma was harvested from blood by centrifugation and stored at −70° C. until analysis. Following collection of blood sample, the animals (Group I) were humanely euthanized by carbon dioxide asphyxiation. The total colon was isolated, flushed with cold phosphate buffer saline (pH 7.4) to remove contents and weighed. The total colon tissues homogenized with ice-cold phosphate buffered saline, pH 7.4. Buffer volume to be used for homogenization was twice the weight of tissue. All the samples were stored below −70° C. until bioanalysis. Total colon tissue homogenate volume was three times. Plasma and total colon tissue samples were quantified by LC-MS/MS method (LLOQ in plasma and total colon tissue=0.5 ng/mL)

[3] = system: 71 receptors and 26 enzymes; experiment: Diversity Profile (Cerep); type: binding; settings: 300 nM
Description: Studies were conducted by Cerep (Celle-Lévescault, France) to investigate the binding of the compound of Example 77 to a diverse selection of receptors and to investigate either the inhibition or activation of a selection of enzymes (the “Diversity Profile” comprising a total of 71 receptors and 26 enzymes).

B-Raf (V600e) = B-Raf (V600e) (Homo sapiens (Human), UniProt P15056, V600E); experiment: Enzyme binding assay (KINOMEscan)
Chain of B-Raf (V600e) (P15056 whole entry V600E): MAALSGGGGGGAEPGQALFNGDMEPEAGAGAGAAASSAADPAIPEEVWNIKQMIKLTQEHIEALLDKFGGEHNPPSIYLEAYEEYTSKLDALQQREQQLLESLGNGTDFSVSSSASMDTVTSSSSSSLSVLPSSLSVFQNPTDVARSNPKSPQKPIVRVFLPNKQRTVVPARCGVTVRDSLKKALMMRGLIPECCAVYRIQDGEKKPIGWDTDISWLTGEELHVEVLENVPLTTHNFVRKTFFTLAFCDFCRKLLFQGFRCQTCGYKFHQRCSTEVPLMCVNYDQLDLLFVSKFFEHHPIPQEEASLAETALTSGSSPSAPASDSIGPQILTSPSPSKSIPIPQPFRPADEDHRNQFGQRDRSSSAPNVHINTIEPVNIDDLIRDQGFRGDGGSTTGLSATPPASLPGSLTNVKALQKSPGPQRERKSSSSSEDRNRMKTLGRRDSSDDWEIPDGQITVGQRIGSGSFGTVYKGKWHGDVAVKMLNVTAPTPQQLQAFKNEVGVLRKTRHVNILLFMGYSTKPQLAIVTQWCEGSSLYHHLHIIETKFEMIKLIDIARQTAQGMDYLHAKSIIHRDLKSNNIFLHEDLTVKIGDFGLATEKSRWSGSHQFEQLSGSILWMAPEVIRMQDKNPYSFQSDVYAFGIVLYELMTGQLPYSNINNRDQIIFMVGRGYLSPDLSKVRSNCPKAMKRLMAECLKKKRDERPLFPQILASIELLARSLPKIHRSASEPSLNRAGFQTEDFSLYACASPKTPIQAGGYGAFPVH
Description: The kinase enzyme binding activities of compounds disclosed herein were determined using a proprietary assay which measures active site-directed competition binding to an immobilized ligand (Fabian, M. A. et al., Nature Biotechnol., 2005, 23:329-336). These assays were conducted by DiscoverX (formerly Ambit; San Diego, Calif.). The percentage inhibition produced by incubation with a test compound is calculated relative to the non-inhibited control.

[4] = Hepatic microsomal stability; type: in vitro ADME; settings: scaled from intrinsic clearance, mean of two experiments
Description: • Microsomal stability assays were performed with incubations of test compounds at 0.1 μM (n=2, final DMSO concentration 0.25%), and carried out using pooled human, dog and rat hepatic microsomes from Xenotech (Lots 1210153, 0810143 and 1110042, respectively) at 0.25 mg protein/mL in the presence of co-factor, NADPH. The incubations were performed at 37° C. with 100 μL aliquots taken from the incubation, at 0, 2, 5, 10 and 20 minutes and reactions terminated by addition of 100 μL of acetonitrile containing carbamazepine as analytical internal standard. […] Half-life values were calculated from the relationship T1/2(min)=−0.693/λ • where λ was the slope of the Ln concentration vs time curve. • The in vitro intrinsic clearance, CIint (mL/min/kg), was calculated and scaled to hepatic extraction ratios using the following scaling parameters and formulae.
Formulae CIint(tissue clearance) mL/min/kg=[0.693/t½(min)]×[1/microsomal protein concentration mg/mL]×[mg microsomes/g liver]×[g liver/kg body weight] […] The incubations were performed at 37° C. with 100 μL samples taken from the incubation, at 0, 10, 20, 45 and 90 minutes, and reactions terminated by addition of 100 μL of acetonitrile containing carbamazepine as analytical internal standard. […] Half-life values were calculated from the relationship T1/2(min)=−0.693/λ • where λ was the slope of the Ln concentration vs time curve. • Standard compounds testosterone, midazolam and 4-methylumbelliferone are included in the assay design.

[5] = male, Wistar, plasma, intravenous 0.25 mg/kg
[6] = male, Wistar, po, 5 mg/kg p.o., Plasma
[7] = male, Wistar, total colon tissue, po, 5 mg/kg p.o., Total colon

Chain of p38 MAPKα isoform (MAPK14) (Q16539 whole entry, canonical isoform): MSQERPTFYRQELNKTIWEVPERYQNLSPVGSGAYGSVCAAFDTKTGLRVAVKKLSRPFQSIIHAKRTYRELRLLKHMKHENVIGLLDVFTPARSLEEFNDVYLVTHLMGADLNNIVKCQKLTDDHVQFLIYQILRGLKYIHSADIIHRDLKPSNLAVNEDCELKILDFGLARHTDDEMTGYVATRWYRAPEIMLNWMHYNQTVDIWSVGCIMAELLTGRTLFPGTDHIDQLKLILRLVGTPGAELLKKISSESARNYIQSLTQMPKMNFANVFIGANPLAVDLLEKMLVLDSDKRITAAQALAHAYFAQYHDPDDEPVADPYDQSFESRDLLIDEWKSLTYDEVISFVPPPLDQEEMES

C#Cc1cc(Nc2nccc(Oc3ccc(NC(=O)Nc4cc(C(C)(C)C)nn4-c4ccc(OC)cc4)c4ccccc34)n2)cc(C(=O)NCCN2CCOCC2)c1 [Example 77, 3-((4-((4-(3-(3-(tert-Butyl)-1-(4-methoxyphenyl)-1H-pyrazol-5-yl)ureido)-naphthalen-1-yl)oxy)pyrimidin-2-yl)amino)-5-ethynyl-N-(2-morpholinoethyl)benzamide]
IC50 [1]: 22 nM | Fpo ([2]; 5 mg/kg p.o., Plasma): 0.1% | AUC(0-inf) [2, 5]: 1190 ng·h/mL | AUC(0-t) [2, 5]: 1180 ng·h/mL | C0 [2, 5]: 4030 ng/mL | Vd [2, 5]: 0.1 L/kg | clearance [2, 5]: 3.5 mL/min/kg | half-life [2, 5]: 0.8 h | AUC(0-inf) [2, 6]: 17.5 ng·h/mL | AUC(0-t) [2, 6]: 17.5 ng·h/mL | Cmax [2, 6]: 2.5 ng/mL | Tmax [2, 6]: 6 h | AUC(0-inf) [2, 7]: 20700 ng·h/mL | AUC(0-t) [2, 7]: 20500 ng·h/mL | Cmax [2, 7]: 2500 ng/mL | Tmax [2, 7]: 4 h | inhibition of the control specific binding in the receptor binding assays or enzyme assays [3]: less than 25% | effect on the binding of the kinase B-Raf (V600e) to its standard ligand (B-Raf (V600e)): did not have any effect | Mean hepatic extraction ratio (Eh) ([4]; dog hepatic microsomes): 0.94 | Mean hepatic extraction ratio (Eh) ([4]; rat hepatic microsomes): 0.82
